Reference: patent US11793849B2, “Method of Chinese herbal medicine extract used for treating multiple diseases caused by drug resistant bacteria infection” (priority 2016, dated 2023)
Read-outs that look alike come from different tables or passages of the source.

System: MDRAB
Experiment: Checkerboard assay (combined-use MIC, FIC)
Format: cell-based, Acinetobacter baumannii
Settings: for FIC, all strains / MIC50 of the antibiotic after combined use / MIC90 of the antibiotic after combined use / reduction of the antibiotic's MIC50 vs single use / reduction of the antibiotic's MIC90 vs single use / share of strains with FIC ≤ 0.5: 20 MDRABs; for MIC: Acinetobacter baumannii, read-out: single-use MIC
Procedure: Test methods of the sensibilization effects of the test product to similar antibiotics: it is operated by referring to a checkerboard assay recommended by NCCLS.
The checkerboard assay is performed in a 96-pore sterile culture plate.
Calculation of a Fractional Inhibitory Concentration (FIC): FIC=S20b combined-use MIC/S20b single-use MIC+antibiotic combined-use MIC/antibiotic single-use MIC. By calculating the FIC, the combined antibacterial interaction between the EA and the antibiotic is evaluated, with synergistic effect for FIC≤0.5, additive effect for 0.5<FIC≤1, indifferent effect for 1<FIC≤2 and antagonistic effect for FIC>2. According to a sterile growth pore, the optimum concentration ratio between the EA and the antibiotic is founded out. At last, the effect of the EA to strengthen the efficacy of the antibiotic is evaluated.

[1] = antibiotic with 60% ethanol extract
[2] = antibiotic with 95% ethanol extract
[3] = antibiotic with EA (10% ethanol extract)
[4] = antibiotic with EA (water extract)

## C[C@H]1COc2c(N3CCN(C)CC3)c(F)cc3c(=O)c(C(=O)O)cn1c23 [LVX, Levofloxacin]
[1]
  FIC, all strains: ≤ 2
  MIC50 of the antibiotic after combined use: 4 µg/mL
  MIC90 of the antibiotic after combined use: 8 µg/mL
  reduction of the antibiotic's MIC50 vs single use: 50%
  reduction of the antibiotic's MIC90 vs single use: 75%
  share of strains with FIC ≤ 0.5: 5%
[2]
  FIC, all strains: ≤ 2
  MIC50 of the antibiotic after combined use: 4 µg/mL
  MIC90 of the antibiotic after combined use: 8 µg/mL
  reduction of the antibiotic's MIC50 vs single use: 50%
  reduction of the antibiotic's MIC90 vs single use: 75%
  share of strains with FIC ≤ 0.5: 20%
[3]
  FIC, all strains: ≤ 2
  MIC50 of the antibiotic after combined use: 4 µg/mL
  MIC90 of the antibiotic after combined use: 8 µg/mL
  reduction of the antibiotic's MIC50 vs single use: 50%
  reduction of the antibiotic's MIC90 vs single use: 75%
  share of strains with FIC ≤ 0.5: 25%
[4]
  FIC, all strains: ≤ 2
  MIC50 of the antibiotic after combined use: 2 µg/mL
  MIC90 of the antibiotic after combined use: 8 µg/mL
  reduction of the antibiotic's MIC50 vs single use: 75%
  reduction of the antibiotic's MIC90 vs single use: 75%
  share of strains with FIC ≤ 0.5: 35%
Strain A1, EA=10% ethanol extract
  MIC: 0.5 µg/mL
Strain A1, EA=60% ethanol extract
  MIC: 0.5 µg/mL
Strain A2, EA=10% ethanol extract
  MIC: 16 µg/mL
Strain A2, EA=60% ethanol extract
  MIC: 16 µg/mL
Strain A3, EA=10% ethanol extract
  MIC: 16 µg/mL
Strain A3, EA=60% ethanol extract
  MIC: 16 µg/mL
Strain A4, EA=10% ethanol extract
  MIC: 0.5 µg/mL
Strain A4, EA=60% ethanol extract
  MIC: 0.5 µg/mL
Strain A5, EA=10% ethanol extract
  MIC: 4 µg/mL
Strain A5, EA=60% ethanol extract
  MIC: 4 µg/mL
Strain A6, EA=10% ethanol extract
  MIC: 8 µg/mL
Strain A6, EA=60% ethanol extract
  MIC: 8 µg/mL
Strain A7, EA=10% ethanol extract
  MIC: 8 µg/mL
Strain A7, EA=60% ethanol extract
  MIC: 8 µg/mL
Strain A8, EA=10% ethanol extract
  MIC: 4 µg/mL
Strain A8, EA=60% ethanol extract
  MIC: 4 µg/mL
Strain A9, EA=10% ethanol extract
  MIC: 4 µg/mL
Strain A9, EA=60% ethanol extract
  MIC: 4 µg/mL
Strain A10, EA=10% ethanol extract
  MIC: 32 µg/mL
Strain A10, EA=60% ethanol extract
  MIC: 32 µg/mL
Strain A11, EA=10% ethanol extract
  MIC: 4 µg/mL
Strain A11, EA=60% ethanol extract
  MIC: 4 µg/mL
Strain A12, EA=10% ethanol extract
  MIC: 32 µg/mL
Strain A12, EA=60% ethanol extract
  MIC: 32 µg/mL
Strain A13, EA=10% ethanol extract
  MIC: 32 µg/mL
Strain A13, EA=60% ethanol extract
  MIC: 32 µg/mL
Strain A14, EA=10% ethanol extract
  MIC: 16 µg/mL
Strain A14, EA=60% ethanol extract
  MIC: 16 µg/mL
Strain A15, EA=10% ethanol extract
  MIC: 32 µg/mL
Strain A15, EA=60% ethanol extract
  MIC: 32 µg/mL
Strain A16, EA=10% ethanol extract
  MIC: 8 µg/mL
Strain A16, EA=60% ethanol extract
  MIC: 8 µg/mL
Strain A17, EA=10% ethanol extract
  MIC: 16 µg/mL
Strain A17, EA=60% ethanol extract
  MIC: 16 µg/mL
Strain A18, EA=10% ethanol extract
  MIC: 8 µg/mL
Strain A18, EA=60% ethanol extract
  MIC: 8 µg/mL
Strain A19, EA=10% ethanol extract
  MIC: 16 µg/mL
Strain A19, EA=60% ethanol extract
  MIC: 16 µg/mL
Strain A20, EA=10% ethanol extract
  MIC: 16 µg/mL
Strain A20, EA=60% ethanol extract
  MIC: 16 µg/mL
Strain A1, EA (10% ethanol extract) + LVX combined
  combined-use MIC: 0.0625 µg/mL
Strain A1, EA (60% ethanol extract) + LVX combined
  combined-use MIC: 0.0625 µg/mL
Strain A1, EA (P. clypearia 95% ethanol extract) combined with LVX
  combined-use MIC: 0.25 µg/mL
Strain A1, EA (water extract) with LVX
  combined-use MIC: 0.0625 µg/mL
Strain A2, EA (10% ethanol extract) + LVX combined
  combined-use MIC: 8 µg/mL
Strain A2, EA (60% ethanol extract) + LVX combined
  combined-use MIC: 16 µg/mL
Strain A2, EA (P. clypearia 95% ethanol extract) combined with LVX
  combined-use MIC: 8 µg/mL
Strain A2, EA (water extract) with LVX
  combined-use MIC: 16 µg/mL
Strain A3, EA (10% ethanol extract) + LVX combined
  combined-use MIC: 2 µg/mL
Strain A3, EA (60% ethanol extract) + LVX combined
  combined-use MIC: 0.0625 µg/mL
Strain A3, EA (P. clypearia 95% ethanol extract) combined with LVX
  combined-use MIC: 2 µg/mL
Strain A3, EA (water extract) with LVX
  combined-use MIC: 2 µg/mL
Strain A4, EA (10% ethanol extract) + LVX combined
  combined-use MIC: 0.0625 µg/mL
Strain A4, EA (60% ethanol extract) + LVX combined
  combined-use MIC: 0.0625 µg/mL
Strain A4, EA (P. clypearia 95% ethanol extract) combined with LVX
  combined-use MIC: 0.0625 µg/mL
Strain A4, EA (water extract) with LVX
  combined-use MIC: 0.0625 µg/mL
Strain A5, EA (10% ethanol extract) + LVX combined
  combined-use MIC: 2 µg/mL
Strain A5, EA (60% ethanol extract) + LVX combined
  combined-use MIC: 4 µg/mL
Strain A5, EA (water extract) with LVX
  combined-use MIC: 1 µg/mL
Strain A6, EA (10% ethanol extract) + LVX combined
  combined-use MIC: 4 µg/mL
Strain A6, EA (60% ethanol extract) + LVX combined
  combined-use MIC: 4 µg/mL
Strain A6, EA (P. clypearia 95% ethanol extract) combined with LVX
  combined-use MIC: 4 µg/mL
Strain A6, EA (water extract) with LVX
  combined-use MIC: 4 µg/mL
Strain A7, EA (10% ethanol extract) + LVX combined
  combined-use MIC: 4 µg/mL
Strain A7, EA (60% ethanol extract) + LVX combined
  combined-use MIC: 4 µg/mL
Strain A7, EA (P. clypearia 95% ethanol extract) combined with LVX
  combined-use MIC: 4 µg/mL
Strain A7, EA (water extract) with LVX
  combined-use MIC: 4 µg/mL
Strain A8, EA (10% ethanol extract) + LVX combined
  combined-use MIC: 2 µg/mL
Strain A8, EA (60% ethanol extract) + LVX combined
  combined-use MIC: 4 µg/mL
Strain A8, EA (P. clypearia 95% ethanol extract) combined with LVX
  combined-use MIC: 2 µg/mL
Strain A8, EA (water extract) with LVX
  combined-use MIC: 4 µg/mL
Strain A9, EA (10% ethanol extract) + LVX combined
  combined-use MIC: 0.0625 µg/mL
Strain A9, EA (60% ethanol extract) + LVX combined
  combined-use MIC: 0.0625 µg/mL
Strain A9, EA (P. clypearia 95% ethanol extract) combined with LVX
  combined-use MIC: 0.0625 µg/mL
Strain A9, EA (water extract) with LVX
  combined-use MIC: 0.0625 µg/mL
Strain A10, EA (10% ethanol extract) + LVX combined
  combined-use MIC: 8 µg/mL
Strain A10, EA (60% ethanol extract) + LVX combined
  combined-use MIC: 0.0625 µg/mL
Strain A10, EA (P. clypearia 95% ethanol extract) combined with LVX
  combined-use MIC: 2 µg/mL
Strain A10, EA (water extract) with LVX
  combined-use MIC: 8 µg/mL
Strain A11, EA (10% ethanol extract) + LVX combined
  combined-use MIC: 2 µg/mL
Strain A11, EA (60% ethanol extract) + LVX combined
  combined-use MIC: 4 µg/mL
Strain A11, EA (P. clypearia 95% ethanol extract) combined with LVX
  combined-use MIC: 4 µg/mL
Strain A11, EA (water extract) with LVX
  combined-use MIC: 2 µg/mL
Strain A12, EA (10% ethanol extract) + LVX combined
  combined-use MIC: 8 µg/mL
Strain A12, EA (60% ethanol extract) + LVX combined
  combined-use MIC: 1 µg/mL
Strain A12, EA (P. clypearia 95% ethanol extract) combined with LVX
  combined-use MIC: 1 µg/mL
Strain A12, EA (water extract) with LVX
  combined-use MIC: 2 µg/mL
Strain A13, EA (10% ethanol extract) + LVX combined
  combined-use MIC: 8 µg/mL
Strain A13, EA (60% ethanol extract) + LVX combined
  combined-use MIC: 0.0625 µg/mL
Strain A13, EA (P. clypearia 95% ethanol extract) combined with LVX
  combined-use MIC: 2 µg/mL
Strain A13, EA (water extract) with LVX
  combined-use MIC: 8 µg/mL
Strain A14, EA (10% ethanol extract) + LVX combined
  combined-use MIC: 8 µg/mL
Strain A14, EA (60% ethanol extract) + LVX combined
  combined-use MIC: 8 µg/mL
Strain A14, EA (P. clypearia 95% ethanol extract) combined with LVX
  combined-use MIC: 8 µg/mL
Strain A14, EA (water extract) with LVX
  combined-use MIC: 8 µg/mL
Strain A15, EA (10% ethanol extract) + LVX combined
  combined-use MIC: 16 µg/mL
Strain A15, EA (60% ethanol extract) + LVX combined
  combined-use MIC: 0.0625 µg/mL
Strain A15, EA (P. clypearia 95% ethanol extract) combined with LVX
  combined-use MIC: 2 µg/mL
Strain A15, EA (water extract) with LVX
  combined-use MIC: 0.0625 µg/mL
Strain A16, EA (10% ethanol extract) + LVX combined
  combined-use MIC: 4 µg/mL
Strain A16, EA (60% ethanol extract) + LVX combined
  combined-use MIC: 4 µg/mL
Strain A16, EA (P. clypearia 95% ethanol extract) combined with LVX
  combined-use MIC: 4 µg/mL
Strain A16, EA (water extract) with LVX
  combined-use MIC: 2 µg/mL
Strain A17, EA (10% ethanol extract) + LVX combined
  combined-use MIC: 4 µg/mL
Strain A17, EA (60% ethanol extract) + LVX combined
  combined-use MIC: 4 µg/mL
Strain A17, EA (P. clypearia 95% ethanol extract) combined with LVX
  combined-use MIC: 4 µg/mL
Strain A17, EA (water extract) with LVX
  combined-use MIC: 8 µg/mL
Strain A18, EA (10% ethanol extract) + LVX combined
  combined-use MIC: 4 µg/mL
Strain A18, EA (60% ethanol extract) + LVX combined
  combined-use MIC: 4 µg/mL
Strain A18, EA (P. clypearia 95% ethanol extract) combined with LVX
  combined-use MIC: 4 µg/mL
Strain A18, EA (water extract) with LVX
  combined-use MIC: 1 µg/mL
Strain A19, EA (10% ethanol extract) + LVX combined
  combined-use MIC: 2 µg/mL
Strain A19, EA (60% ethanol extract) + LVX combined
  combined-use MIC: 8 µg/mL
Strain A19, EA (P. clypearia 95% ethanol extract) combined with LVX
  combined-use MIC: 8 µg/mL
Strain A19, EA (water extract) with LVX
  combined-use MIC: 8 µg/mL
Strain A20, EA (10% ethanol extract) + LVX combined
  combined-use MIC: 4 µg/mL
Strain A20, EA (60% ethanol extract) + LVX combined
  combined-use MIC: 8 µg/mL
Strain A20, EA (P. clypearia 95% ethanol extract) combined with LVX
  combined-use MIC: 8 µg/mL
Strain A20, EA (water extract) with LVX
  combined-use MIC: 4 µg/mL
Strain AS, EA (P. clypearia 95% ethanol extract) combined with LVX
  combined-use MIC: 2 µg/mL
